Test results as given in ChEMBL document CHEMBL1909046, “DrugMatrix in vitro pharmacology data”.

How the values were obtained:
[1] = molecular target: T1, D(4) dopamine receptor (Homo sapiens, UniProt P21917); assay: DRUGMATRIX: Dopamine D4.2 radioligand binding (ligand: [3H] Spiperone); type: cell membranes, CHO-K1, Membrane; conditions: Not Active = under 50% inhibition at 10 µM
T1 sequence (P21917 whole entry): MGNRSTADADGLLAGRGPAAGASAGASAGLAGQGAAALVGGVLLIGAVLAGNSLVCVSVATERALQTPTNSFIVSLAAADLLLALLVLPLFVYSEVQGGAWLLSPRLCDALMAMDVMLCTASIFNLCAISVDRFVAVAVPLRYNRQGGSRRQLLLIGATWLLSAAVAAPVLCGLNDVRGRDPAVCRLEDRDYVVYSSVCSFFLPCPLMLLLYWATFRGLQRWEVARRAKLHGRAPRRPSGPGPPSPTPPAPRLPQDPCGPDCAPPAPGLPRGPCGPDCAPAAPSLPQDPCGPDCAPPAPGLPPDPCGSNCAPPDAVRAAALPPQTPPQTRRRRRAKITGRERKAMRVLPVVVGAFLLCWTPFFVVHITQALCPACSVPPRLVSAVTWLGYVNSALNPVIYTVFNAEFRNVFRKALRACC

[2] = molecular target: T2, Receptor-type tyrosine-protein phosphatase C (Homo sapiens, UniProt P08575); design: species or system Escherichia coli;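 note: inhibition of CD45 enzyme activity measured using DiFMUP as substrate; in other assays of this panel Not Active means under 50% inhibition at 10 µM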
T2 sequence (P08575 whole entry): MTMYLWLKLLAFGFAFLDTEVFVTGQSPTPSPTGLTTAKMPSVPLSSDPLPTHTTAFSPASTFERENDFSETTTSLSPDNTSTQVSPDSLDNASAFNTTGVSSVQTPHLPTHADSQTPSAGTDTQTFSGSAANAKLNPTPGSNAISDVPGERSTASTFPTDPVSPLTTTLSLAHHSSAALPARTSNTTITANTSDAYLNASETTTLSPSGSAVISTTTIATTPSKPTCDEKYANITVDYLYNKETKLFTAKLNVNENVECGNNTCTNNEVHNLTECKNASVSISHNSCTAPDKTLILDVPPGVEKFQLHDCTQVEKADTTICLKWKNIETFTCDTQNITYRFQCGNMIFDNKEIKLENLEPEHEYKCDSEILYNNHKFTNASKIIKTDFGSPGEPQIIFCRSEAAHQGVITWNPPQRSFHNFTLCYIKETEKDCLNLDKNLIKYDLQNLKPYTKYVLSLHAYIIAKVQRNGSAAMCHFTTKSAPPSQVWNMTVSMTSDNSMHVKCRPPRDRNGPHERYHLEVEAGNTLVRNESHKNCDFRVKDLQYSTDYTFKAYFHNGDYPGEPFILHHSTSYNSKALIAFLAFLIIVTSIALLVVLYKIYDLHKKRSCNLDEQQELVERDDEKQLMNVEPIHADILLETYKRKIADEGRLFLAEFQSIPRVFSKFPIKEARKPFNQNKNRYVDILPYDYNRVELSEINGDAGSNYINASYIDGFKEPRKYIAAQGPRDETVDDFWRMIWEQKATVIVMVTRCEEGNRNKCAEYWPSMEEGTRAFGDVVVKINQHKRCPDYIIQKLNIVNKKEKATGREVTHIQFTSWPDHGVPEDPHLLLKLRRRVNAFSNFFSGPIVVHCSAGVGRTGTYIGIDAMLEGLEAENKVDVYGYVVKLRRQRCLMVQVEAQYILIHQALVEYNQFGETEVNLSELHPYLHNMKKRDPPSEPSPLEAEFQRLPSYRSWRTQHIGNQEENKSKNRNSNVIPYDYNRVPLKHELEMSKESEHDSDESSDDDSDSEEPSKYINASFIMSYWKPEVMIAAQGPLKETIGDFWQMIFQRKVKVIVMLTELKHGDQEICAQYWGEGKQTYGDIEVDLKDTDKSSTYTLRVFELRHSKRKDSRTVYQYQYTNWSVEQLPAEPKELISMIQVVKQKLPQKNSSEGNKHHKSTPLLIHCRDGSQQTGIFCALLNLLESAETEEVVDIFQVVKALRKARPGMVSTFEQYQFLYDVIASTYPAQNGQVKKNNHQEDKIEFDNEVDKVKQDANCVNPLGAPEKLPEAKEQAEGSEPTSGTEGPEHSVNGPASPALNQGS

[3] = molecular target: T3, Muscarinic acetylcholine receptor M5 (Homo sapiens, UniProt P08912); type: cell membranes, CHO-K1, Membrane; note: in other assays of this panel Not Active means under 50% inhibition at 10 µM
T3 sequence (P08912 whole entry): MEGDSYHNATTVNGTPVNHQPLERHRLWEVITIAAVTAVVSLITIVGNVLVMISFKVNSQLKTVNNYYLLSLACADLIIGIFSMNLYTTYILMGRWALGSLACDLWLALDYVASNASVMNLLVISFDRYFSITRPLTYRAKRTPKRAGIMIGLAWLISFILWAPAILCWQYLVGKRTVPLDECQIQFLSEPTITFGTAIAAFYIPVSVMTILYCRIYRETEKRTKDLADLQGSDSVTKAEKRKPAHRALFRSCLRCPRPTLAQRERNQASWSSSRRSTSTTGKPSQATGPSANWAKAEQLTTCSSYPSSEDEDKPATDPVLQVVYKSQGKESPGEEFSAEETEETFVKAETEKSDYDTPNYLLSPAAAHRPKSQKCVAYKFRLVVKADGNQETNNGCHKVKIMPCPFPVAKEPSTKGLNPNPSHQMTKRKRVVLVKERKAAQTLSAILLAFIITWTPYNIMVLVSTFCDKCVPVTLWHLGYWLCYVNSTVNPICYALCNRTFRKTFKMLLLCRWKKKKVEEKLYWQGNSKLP

[4] = molecular target: T4, Alpha-1D adrenergic receptor (Homo sapiens, UniProt P25100); type: cell membranes, HEK293, Membrane; conditions: for Ki: read-out: Ki; for all read-outs here: in other assays of this panel Not Active means under 50% inhibition at 10 µM
T4 sequence (P25100 whole entry): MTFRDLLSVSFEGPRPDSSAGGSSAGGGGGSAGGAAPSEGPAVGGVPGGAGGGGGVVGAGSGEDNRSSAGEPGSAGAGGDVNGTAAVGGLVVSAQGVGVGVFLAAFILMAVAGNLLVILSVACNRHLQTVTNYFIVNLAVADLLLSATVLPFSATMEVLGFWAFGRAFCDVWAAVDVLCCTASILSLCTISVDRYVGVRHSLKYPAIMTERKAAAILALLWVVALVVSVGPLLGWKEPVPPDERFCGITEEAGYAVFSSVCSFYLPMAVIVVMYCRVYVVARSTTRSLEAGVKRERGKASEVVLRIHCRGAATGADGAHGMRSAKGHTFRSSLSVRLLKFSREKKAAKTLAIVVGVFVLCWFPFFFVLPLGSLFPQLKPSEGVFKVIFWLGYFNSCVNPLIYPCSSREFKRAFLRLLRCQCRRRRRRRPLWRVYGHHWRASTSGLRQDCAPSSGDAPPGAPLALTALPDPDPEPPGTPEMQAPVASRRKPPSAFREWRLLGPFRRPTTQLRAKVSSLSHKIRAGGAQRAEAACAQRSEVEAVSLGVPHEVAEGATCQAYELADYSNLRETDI

[5] = molecular target: Nitric oxide synthase 1 (Rattus norvegicus, UniProt P29476); type: tissue-based, Cerebellum; note: in other assays of this panel Not Active means under 50% inhibition at 10 µM
Chain of Nitric oxide synthase 1 (P29476 whole entry): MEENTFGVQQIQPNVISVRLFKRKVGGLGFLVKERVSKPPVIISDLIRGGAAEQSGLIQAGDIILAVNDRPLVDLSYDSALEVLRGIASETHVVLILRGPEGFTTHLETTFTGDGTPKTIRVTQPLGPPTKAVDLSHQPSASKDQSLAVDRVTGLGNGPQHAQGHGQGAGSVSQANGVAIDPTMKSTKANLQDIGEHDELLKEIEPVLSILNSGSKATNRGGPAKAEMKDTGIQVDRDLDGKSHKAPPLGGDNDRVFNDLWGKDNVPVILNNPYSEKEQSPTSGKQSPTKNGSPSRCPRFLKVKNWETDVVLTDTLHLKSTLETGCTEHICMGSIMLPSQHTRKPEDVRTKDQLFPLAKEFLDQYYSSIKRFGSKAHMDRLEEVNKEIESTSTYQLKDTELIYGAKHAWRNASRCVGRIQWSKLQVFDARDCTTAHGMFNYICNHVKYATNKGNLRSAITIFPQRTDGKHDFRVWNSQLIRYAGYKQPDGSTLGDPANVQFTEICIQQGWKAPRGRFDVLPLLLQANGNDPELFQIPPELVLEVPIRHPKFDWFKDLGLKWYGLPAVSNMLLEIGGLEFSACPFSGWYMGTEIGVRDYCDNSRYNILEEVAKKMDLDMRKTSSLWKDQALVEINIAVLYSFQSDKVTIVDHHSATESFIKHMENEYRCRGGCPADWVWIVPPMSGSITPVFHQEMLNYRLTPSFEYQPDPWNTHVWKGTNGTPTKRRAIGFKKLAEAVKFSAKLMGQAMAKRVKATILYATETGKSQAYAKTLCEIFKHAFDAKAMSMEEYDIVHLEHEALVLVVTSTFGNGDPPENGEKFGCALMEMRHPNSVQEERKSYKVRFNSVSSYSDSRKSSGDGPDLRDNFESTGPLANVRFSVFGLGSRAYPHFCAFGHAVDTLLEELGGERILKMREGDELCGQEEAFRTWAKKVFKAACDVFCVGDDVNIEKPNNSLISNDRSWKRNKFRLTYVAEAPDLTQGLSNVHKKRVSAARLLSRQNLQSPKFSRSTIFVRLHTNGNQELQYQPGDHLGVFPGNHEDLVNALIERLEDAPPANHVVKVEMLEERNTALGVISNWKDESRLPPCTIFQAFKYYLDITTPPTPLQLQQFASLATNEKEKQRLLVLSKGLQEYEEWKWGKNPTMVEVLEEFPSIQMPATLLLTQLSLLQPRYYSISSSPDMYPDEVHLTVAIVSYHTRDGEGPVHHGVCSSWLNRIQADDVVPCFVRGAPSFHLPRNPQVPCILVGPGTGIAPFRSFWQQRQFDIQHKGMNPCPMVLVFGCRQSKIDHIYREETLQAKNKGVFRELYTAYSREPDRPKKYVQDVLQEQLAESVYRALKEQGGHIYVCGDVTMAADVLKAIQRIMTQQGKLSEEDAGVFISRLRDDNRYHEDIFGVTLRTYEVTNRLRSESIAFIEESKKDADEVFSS

SMILES | IC50 ([1]; read-out: IC50) | Ki ([1]; read-out: Ki) | IC50 [2] | IC50 ([3]; cho-k1) | IC50 ([4]; read-out: IC50) | Ki [4] | IC50 [5] | IC50 ([1]; cho-k1) | IC50 ([4]; hek293) | IC50 ([3]; read-out: IC50) | Ki ([3]; read-out: Ki)
Clc1ccc(COC(Cn2ccnc2)c2ccc(Cl)cc2Cl)c(Cl)c1 (stereo not given) [MICONAZOLE] | 15.3 µM | 5.35 µM | Not Active | Not Active | 3050 nM | 1500 nM | Not Active |  |  |  | 
CC1CCC(NC(=O)N(CCCl)N=O)CC1 (stereo not given) [SEMUSTINE] |  |  | Not Active | Not Active |  |  | Not Active | Not Active | Not Active |  | 
O=C1C[C@@H]2OCC=C3CN4CC[C@]56c7ccccc7N1[C@H]5[C@H]2[C@H]3C[C@H]46 [STRYCHNINE] |  |  | Not Active | Not Active |  |  | Not Active | Not Active | Not Active |  | 
C[S+]([O-])c1ccc(-c2nc(-c3ccncc3)c(-c3ccc(F)cc3)[nH]2)cc1 (stereo not given) [SB-203580] |  |  | Not Active | Not Active |  |  | Not Active | Not Active | Not Active |  | 
CC(=N)S [THIOACETAMIDE] |  |  | Not Active | Not Active |  |  | Not Active | Not Active | Not Active |  | 
COC(=O)[C@H]1[C@H]2C[C@@H]3c4[nH]c5cc(OC)ccc5c4CCN3C[C@H]2C[C@@H](OC(=O)c2cc(OC)c(OC)c(OC)c2)[C@@H]1OC [RESERPINE] |  |  | Not Active | Not Active |  |  | Not Active | Not Active | Not Active |  | 
O=c1[nH]c(=O)n(C2CCCO2)cc1F (stereo not given) [TEGAFUR] |  |  | Not Active | Not Active |  |  | Not Active | Not Active | Not Active |  | 
C[N+](C)(C)CCOC(=O)CCC(=O)OCC[N+](C)(C)C.[Cl-].[Cl-] [SUCCINYLCHOLINE CHLORIDE] |  |  | Not Active | Not Active |  |  | Not Active | Not Active | Not Active |  | 
CCCCC(=O)N(Cc1ccc(-c2ccccc2-c2nnn[nH]2)cc1)[C@H](C(=O)O)C(C)C |  |  | Not Active | Not Active |  |  | Not Active | Not Active | Not Active |  | 
CN1CCN(C2=Nc3cc(Cl)ccc3Nc3ccccc32)CC1 [CLOZAPINE] |  |  | Not Active |  |  |  | Not Active |  |  |  | 
Oc1ccc2c3c1O[C@H]1[C@@H](O)CC[C@@]4(O)[C@@H](C2)N(CC2CCC2)CC[C@]314 [NALBUPHINE] |  |  | Not Active | Not Active |  |  | Not Active | Not Active | Not Active |  | 
CN(C)C(=O)C(CCN1CCC(O)(c2ccc(Cl)cc2)CC1)(c1ccccc1)c1ccccc1 [LOPERAMIDE] |  |  | Not Active | Not Active |  |  | Not Active | Not Active | Not Active |  | 
O=C(O)c1ccccc1O [SALICYLIC ACID] |  |  | Not Active | Not Active |  |  | Not Active | Not Active | Not Active |  | 
Nc1ccc(S(=O)(=O)NC(=O)c2ccccc2)cc1 [SULFABENZAMIDE] |  |  | Not Active | Not Active |  |  | Not Active | Not Active | Not Active |  | 
C[C@@](Cc1ccc(O)c(O)c1)(NN)C(=O)O.O [CARBIDOPA] |  |  | Not Active | Not Active |  |  | Not Active | Not Active | Not Active |  | 
CCCCCCCCNC(C)C(O)c1ccc(SC(C)C)cc1 (stereo not given) [SULOCTIDIL] |  |  | Not Active |  |  |  | Not Active | Not Active | Not Active | 4.49 µM | 3.22 µM
CN1CCN(CCCN2c3ccccc3Sc3ccc(C(F)(F)F)cc32)CC1 [TRIFLUOPERAZINE] |  |  | Not Active | Not Active |  |  | Not Active | Not Active | Not Active |  | 
C[C@]12C=CC(=O)C=C1CC[C@@H]1[C@@H]2C(=O)C[C@@]2(C)[C@H]1CC[C@]2(O)C(=O)CO [PREDNISONE] |  |  | Not Active | Not Active |  |  | Not Active | Not Active | Not Active |  | 
OCCOCCN1CCN(C2=Nc3ccccc3Sc3ccccc32)CC1 [QUETIAPINE] |  |  | Not Active |  | 96.6 nM | 47.5 nM | Not Active | Not Active |  |  | 
CC(C)NC[C@H](O)COc1cccc2ccccc12 [LEVOPROPRANOLOL] |  |  | Not Active | Not Active |  |  | Not Active | Not Active | Not Active |  | 
O=C(O)CCCCC1CCSS1 (stereo not drawn) [LIPOIC ACID, ALPHA] |  |  | Not Active | Not Active |  |  | Not Active | Not Active | Not Active |  | 
CC(C)NC[C@@H](O)COc1cccc2ccccc12 [DEXPROPRANOLOL] |  |  | Not Active | Not Active |  |  | Not Active | Not Active | Not Active |  | 
Cc1ccc(C(=O)c2ccc(CC(=O)O)n2C)cc1 [TOLMETIN] |  |  | Not Active | Not Active |  |  | Not Active | Not Active | Not Active |  | 
CC(=O)OCC(COC(C)=O)OC(C)=O [TRIACETIN] |  |  | Not Active | Not Active |  |  | Not Active | Not Active | Not Active |  | 
CN1[C@@H]2CC[C@H]1C[C@@H](OC(c1ccccc1)c1ccccc1)C2 [BENZTROPINE] |  |  | Not Active |  | 52 nM | 26 nM | Not Active | Not Active |  |  | 
